Values quoted from earlier work, collected in patent publication US9134323B2, “Antibody that specifically binds to an epitope in the tureet region of a human Kir channel” (priority 2009, dated 2015).
Where no end group is shown, it is not given here.

Tests used:
[1] = target: T1, Kir2.1 wild-type channels (Homo sapiens, UniProt P63252); settings: applied to the outside of cells expressing the wild-type channels; 10 mM
T1 sequence (P63252 1-427): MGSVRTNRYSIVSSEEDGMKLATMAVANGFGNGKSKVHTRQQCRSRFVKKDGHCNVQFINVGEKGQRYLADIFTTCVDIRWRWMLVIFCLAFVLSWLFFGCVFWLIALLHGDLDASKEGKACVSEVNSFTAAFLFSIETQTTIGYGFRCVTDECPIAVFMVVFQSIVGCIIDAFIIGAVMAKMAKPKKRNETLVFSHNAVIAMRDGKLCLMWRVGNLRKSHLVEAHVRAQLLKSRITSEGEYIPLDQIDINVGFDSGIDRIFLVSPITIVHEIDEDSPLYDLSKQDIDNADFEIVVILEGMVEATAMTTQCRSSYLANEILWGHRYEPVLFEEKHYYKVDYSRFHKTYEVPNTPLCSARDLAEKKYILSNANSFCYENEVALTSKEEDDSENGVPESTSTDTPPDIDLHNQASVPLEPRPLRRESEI

[2] = target: T2, Kir3.4 channels (Homo sapiens, UniProt P48544+P48549)
T2 sequence (P48544 1-419): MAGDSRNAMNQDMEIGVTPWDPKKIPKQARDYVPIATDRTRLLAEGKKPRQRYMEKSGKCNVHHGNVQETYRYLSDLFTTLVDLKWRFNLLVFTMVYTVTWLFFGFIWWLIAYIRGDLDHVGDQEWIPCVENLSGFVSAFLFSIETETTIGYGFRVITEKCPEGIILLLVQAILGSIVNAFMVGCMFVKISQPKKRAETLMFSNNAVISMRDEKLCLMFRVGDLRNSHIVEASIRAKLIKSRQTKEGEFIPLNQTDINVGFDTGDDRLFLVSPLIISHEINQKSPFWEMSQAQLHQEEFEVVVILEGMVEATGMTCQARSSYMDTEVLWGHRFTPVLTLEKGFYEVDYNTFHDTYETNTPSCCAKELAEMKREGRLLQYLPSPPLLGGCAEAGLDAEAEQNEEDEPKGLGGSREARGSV
T2 sequence (P48549 1-501): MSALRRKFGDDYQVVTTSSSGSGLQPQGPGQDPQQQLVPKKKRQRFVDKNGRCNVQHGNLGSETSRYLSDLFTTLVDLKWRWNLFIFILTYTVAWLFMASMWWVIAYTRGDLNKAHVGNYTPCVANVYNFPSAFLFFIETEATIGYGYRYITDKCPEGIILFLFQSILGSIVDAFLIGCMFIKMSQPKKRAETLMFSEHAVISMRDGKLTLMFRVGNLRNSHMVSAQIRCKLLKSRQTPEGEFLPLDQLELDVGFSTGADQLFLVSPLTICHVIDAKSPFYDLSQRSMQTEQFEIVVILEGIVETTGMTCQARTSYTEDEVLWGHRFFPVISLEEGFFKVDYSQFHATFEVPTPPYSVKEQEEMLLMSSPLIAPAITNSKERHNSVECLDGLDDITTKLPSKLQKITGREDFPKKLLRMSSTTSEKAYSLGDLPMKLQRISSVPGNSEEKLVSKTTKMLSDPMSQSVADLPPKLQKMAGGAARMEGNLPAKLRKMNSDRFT

[3] = target: T3, Kir1.1 channels (Homo sapiens, UniProt P48048)
T3 sequence (P48048 1-391): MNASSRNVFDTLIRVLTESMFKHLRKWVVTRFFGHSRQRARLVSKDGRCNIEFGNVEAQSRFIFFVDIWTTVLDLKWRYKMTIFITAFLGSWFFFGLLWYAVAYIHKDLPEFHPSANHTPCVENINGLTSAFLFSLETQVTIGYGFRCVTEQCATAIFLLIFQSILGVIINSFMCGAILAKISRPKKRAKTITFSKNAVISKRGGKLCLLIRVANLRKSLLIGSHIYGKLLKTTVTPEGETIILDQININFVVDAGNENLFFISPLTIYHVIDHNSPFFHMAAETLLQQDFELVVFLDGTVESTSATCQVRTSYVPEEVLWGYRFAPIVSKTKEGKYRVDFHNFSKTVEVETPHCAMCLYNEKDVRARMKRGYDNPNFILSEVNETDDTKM

[4] = tested on: Kir2.1 channel, variable sequence mutated to be Kir3.4-like; settings: turret variable sequence mutated to be Kir3.4-like

Compound | effect on currents [1] | inhibition of Kir3.4 channels [2] | inhibition of Kir1.1 channels [3] | sensitivity of mutated Kir2.1 channel to the toxin [4] | single channel conductance in the blocked state ([3]; blocked state, reduced rather than inhibited all the way)
O[C@H](CS)[C@H](O)CS (racemic) [DTT, Dithiothreitol] | did not affect currents |  |  |  | 
tertiapin (ALCNCNRIIIPHMCWKKCGKK; ends and bridges not checked; cysteine pairing not given here; UniProt P56587 1-21, looked up) |  | inhibits | inhibits | becomes sensitive | 
δ-dendrotoxin |  |  | inhibits |  | about 10%
N[C@@H](CCC(=O)N[C@@H](CS)C(=O)NCC(=O)O)C(=O)O [reduced glutathione] | did not affect currents |  |  |  | 
